Measured values from PubChem BioAssay (NCI).
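Results reflect a 48-hour exposure of cells in 96-well plates to compound at five concentrations. Abbreviation: GI50, concentration required for 50% inhibition of growth. TGI: total growth inhibition.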

Key:
Assay in all cases: inhibition of tumour cell growth, NCI panel, 48 h; in the data active = GI50 below about 0.43 µM; inactive = the rest
SK-OV-3 ovarian = system: SK-OV-3 ovarian
SK-MEL-5 melanoma = system: SK-MEL-5 melanoma
SF-268 CNS = system: SF-268 CNS
ACHN renal = system: ACHN renal
TK-10 renal = system: TK-10 renal
UO-31 renal = system: UO-31 renal
RPMI-8226 leukemia = system: RPMI-8226 leukemia
COLO 205 colon = system: COLO 205 colon
K-562 leukemia = system: K-562 leukemia
HOP-92 NSCLC = system: HOP-92 NSCLC
MDA-MB-468 breast = system: MDA-MB-468 breast
IGROV1 ovarian = system: IGROV1 ovarian
DU-145 prostate = system: DU-145 prostate
OVCAR-5 ovarian = system: OVCAR-5 ovarian
KM12 colon = system: KM12 colon
HOP-62 NSCLC = system: HOP-62 NSCLC
HCT-116 colon = system: HCT-116 colon
LOX IMVI melanoma = system: LOX IMVI melanoma
BT-549 breast = system: BT-549 breast
SW-620 colon = system: SW-620 colon
A498 renal = system: A498 renal
T-47D breast = system: T-47D breast
OVCAR-3 ovarian = system: OVCAR-3 ovarian
SNB-75 CNS = system: SNB-75 CNS
UACC-62 melanoma = system: UACC-62 melanoma
NCI-H226 lung = system: NCI-H226 lung
SN12C renal = system: SN12C renal
A549 NSCLC = system: A549 NSCLC
OVCAR-8 ovarian = system: OVCAR-8 ovarian

CN(C)CCCNC(=O)c1cc(NC(=O)c2cc(NC(=O)c3ccc(/C=C/c4ccccc4)cc3)cn2C)cn1C
24.6 µM: TGI (SNB-75 CNS)
19 µM: TGI (K-562 leukemia)
18.7 µM: TGI (OVCAR-8 ovarian)
16.5 µM: TGI (RPMI-8226 leukemia) | TGI (BT-549 breast)
> 31.3 µM: TGI (SK-OV-3 ovarian) | TGI (SK-MEL-5 melanoma) | TGI (SF-268 CNS) | TGI (ACHN renal) | TGI (TK-10 renal) | TGI (UO-31 renal) | TGI (IGROV1 ovarian) | TGI (DU-145 prostate) | TGI (OVCAR-5 ovarian) | TGI (A498 renal) | TGI (T-47D breast) | TGI (UACC-62 melanoma) | TGI (NCI-H226 lung) | TGI (SN12C renal) | TGI (A549 NSCLC)
26.4 µM: TGI (COLO 205 colon) | TGI (OVCAR-3 ovarian)
14.9 µM: TGI (SW-620 colon)
13.4 µM: TGI (HCT-116 colon)
18.5 µM: TGI (KM12 colon)
inactive: GI50 (SK-OV-3 ovarian) 17.6 µM | GI50 (SK-MEL-5 melanoma) 8.85 µM | GI50 (SF-268 CNS) 10.6 µM | GI50 (ACHN renal) 11.5 µM | GI50 (TK-10 renal) 12.1 µM | GI50 (UO-31 renal) 9.91 µM | GI50 (RPMI-8226 leukemia) 3.51 µM | GI50 (COLO 205 colon) 9.44 µM | GI50 (K-562 leukemia) 5.83 µM | GI50 (HOP-92 NSCLC) 3.95 µM | GI50 (MDA-MB-468 breast) 5.72 µM | GI50 (IGROV1 ovarian) 22.5 µM | GI50 (DU-145 prostate) 11.5 µM | GI50 (OVCAR-5 ovarian) 20.3 µM | GI50 (KM12 colon) 7.16 µM | GI50 (HOP-62 NSCLC) 7.16 µM | GI50 (HCT-116 colon) 5.36 µM | GI50 (LOX IMVI melanoma) 4.67 µM | GI50 (BT-549 breast) 4.28 µM | GI50 (SW-620 colon) 6.62 µM | GI50 (A498 renal) 25.2 µM | GI50 (T-47D breast) 6.01 µM | GI50 (OVCAR-3 ovarian) 6.75 µM | GI50 (SNB-75 CNS) 1.98 µM | GI50 (UACC-62 melanoma) 7.46 µM | GI50 (NCI-H226 lung) 9.93 µM | GI50 (SN12C renal) 7.41 µM | GI50 (A549 NSCLC) 13.3 µM | GI50 (OVCAR-8 ovarian) 6.5 µM
14.5 µM: TGI (MDA-MB-468 breast)
8.86 µM: TGI (LOX IMVI melanoma)
17.7 µM: TGI (HOP-92 NSCLC)
19.8 µM: TGI (HOP-62 NSCLC)
